Tests used:
[1] = molecular target: T1, native CFTR, genotype F508del/G551D (Homo sapiens, UniProt P13569, G551D); test: Ussing chamber CFTR-mediated short-circuit current (Isc) in F508del/G551D human bronchial epithelial cells; format: cell-based; conditions: for EC50: F508del/G551D epithelia of hBE cells, Isc, 35°C, read-out: EC50 (μM) (95% CI); for Emax: HBE, read-out: Maximal effect (%) (95% CI)
T1 construct: For functional studies of native CFTR, we used primary cultures of human bronchial epithelial cells; host or cells: primary human bronchial epithelial cells, F508del/G551D, air-liquid interface cultures, studied at 35°C
T1 sequence (P13569 whole entry F508del/G551D): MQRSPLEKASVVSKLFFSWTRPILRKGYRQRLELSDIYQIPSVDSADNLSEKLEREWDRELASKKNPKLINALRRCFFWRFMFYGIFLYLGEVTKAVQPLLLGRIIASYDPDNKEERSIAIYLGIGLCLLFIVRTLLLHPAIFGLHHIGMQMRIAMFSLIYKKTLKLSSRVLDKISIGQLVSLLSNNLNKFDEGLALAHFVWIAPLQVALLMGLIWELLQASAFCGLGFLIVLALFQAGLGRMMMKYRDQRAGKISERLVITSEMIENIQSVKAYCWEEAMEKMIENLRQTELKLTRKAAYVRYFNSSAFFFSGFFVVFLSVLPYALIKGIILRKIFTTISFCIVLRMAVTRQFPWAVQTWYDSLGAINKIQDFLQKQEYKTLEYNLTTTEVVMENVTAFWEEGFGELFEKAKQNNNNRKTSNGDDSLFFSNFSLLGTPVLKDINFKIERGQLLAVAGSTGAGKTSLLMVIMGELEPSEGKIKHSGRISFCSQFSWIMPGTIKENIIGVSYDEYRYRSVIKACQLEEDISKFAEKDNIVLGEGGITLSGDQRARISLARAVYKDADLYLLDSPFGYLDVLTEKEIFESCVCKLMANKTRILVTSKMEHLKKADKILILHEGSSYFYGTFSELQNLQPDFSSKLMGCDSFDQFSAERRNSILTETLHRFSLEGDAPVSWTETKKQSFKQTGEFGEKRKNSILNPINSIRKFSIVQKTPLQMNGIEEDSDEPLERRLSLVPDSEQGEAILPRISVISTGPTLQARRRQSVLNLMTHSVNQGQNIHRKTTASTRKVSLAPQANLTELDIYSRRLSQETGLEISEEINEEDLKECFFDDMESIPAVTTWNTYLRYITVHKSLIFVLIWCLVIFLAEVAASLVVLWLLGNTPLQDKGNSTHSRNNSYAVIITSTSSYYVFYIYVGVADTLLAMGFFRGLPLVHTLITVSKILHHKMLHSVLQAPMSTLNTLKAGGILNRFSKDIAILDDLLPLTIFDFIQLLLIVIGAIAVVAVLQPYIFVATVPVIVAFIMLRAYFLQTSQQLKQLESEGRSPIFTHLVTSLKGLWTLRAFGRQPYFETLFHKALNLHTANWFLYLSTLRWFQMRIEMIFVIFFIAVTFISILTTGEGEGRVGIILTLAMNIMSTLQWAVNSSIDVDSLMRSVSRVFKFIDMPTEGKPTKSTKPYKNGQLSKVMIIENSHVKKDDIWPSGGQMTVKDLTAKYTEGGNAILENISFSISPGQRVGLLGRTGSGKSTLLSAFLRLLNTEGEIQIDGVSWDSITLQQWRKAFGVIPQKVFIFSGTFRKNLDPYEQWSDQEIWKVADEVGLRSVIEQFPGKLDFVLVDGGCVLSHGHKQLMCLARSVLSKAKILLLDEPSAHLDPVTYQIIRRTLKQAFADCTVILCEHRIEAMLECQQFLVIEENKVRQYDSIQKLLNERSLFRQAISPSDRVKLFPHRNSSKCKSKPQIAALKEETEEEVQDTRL
Excerpt: For functional studies of native CFTR, we used primary cultures of human bronchial epithelial cells of genotypes F508del/F508del and F508del/G551D. Passage 1 (P1) human bronchial epithelial cells from SH Randell (University of North Carolina [UNC] Cystic Fibrosis Center Tissue Procurement and Cell Culture Core) were differentiated at an air–liquid interface as described by Neuberger et al., ([2011]) with some modifications. The research conducted on human cells at UNC has been verified as compliant with Pfizer policies, including institutional review board or institutional ethics committee approval. Cells were thawed and expanded in BEGM™ Bronchial Epithelial Cell Growth Medium (cat. no. CC‐3170, Lonza, USA) supplemented with retinoic acid (10 nM) and banked at P2. For functional assays, P2 cells were expanded to P4, and 5 × 10^5 P4 human bronchial epithelial cells were seeded in growth medium on Snapwell filter inserts (cat. no. 3801, Corning, NY, USA). Cells were switched to differentiation medium the following day and cultured submerged for 3 days before the medium was removed from the apical membrane to establish an air–liquid interface. Thereafter, the basolateral medium was changed every 2–3 days and mucus washed from the apical membrane every 2–3 weeks and the day prior to use starting 21 days after initiating air–liquid interface culture.
After >30 days of air–liquid interface culture on Snapwell filter inserts, human bronchial epithelial cells formed well differentiated, electrically tight epithelia (Rt > 200 Ω cm^2). Prior to study, F508del/F508del and F508del/G551D human bronchial epithelial cell cultures were incubated at 37°C and 5% CO2.
Epithelia were mounted in Ussing chambers and data acquired and analysed as described above for Ussing chamber studies of FRT cells heterologously expressing CFTR with the following exceptions. Both the apical and basolateral membranes were bathed in solutions containing (mM): 137 NaCl, 4 KCl, 1.8 CaCl2, 1 MgCl2, 10 Na HEPES, and 10 glucose (pH 7.4 with NaOH). Epithelia of F508del/G551D human bronchial epithelial cells were studied at 35°C, whereas those of F508del/F508del human bronchial epithelial cells were assayed at 27°C to maintain the apical membrane expression of F508del‐CFTR. After cancelling voltage offsets, transepithelial voltage was clamped at 0 mV and short‐circuit current (Isc) recorded continuously. The protocol to record CFTR‐mediated Isc was the same as for ICl ^apical measurements except that amiloride (30 μM, apical solution) was added to inhibit the epithelial Na^+ channel before forskolin (10 μM, apical and basolateral solutions) addition.

G551D‐CFTR = G551D‐CFTR (Homo sapiens, UniProt P13569, G551D); test: Automated planar patch-clamp whole-cell Cl− currents in HEK cells; format: cell-based; parameters: expressed in transfected cells; conditions: for EC50: G551D‐CFTR HEK cells, whole-cell currents, automated electrophysiology, 23°C, read-out: EC50 (μM) (95% CI); for Emax: HEK293, read-out: Maximal effect (%) (95% CI)
G551D‐CFTR, sequence (P13569 whole entry G551D): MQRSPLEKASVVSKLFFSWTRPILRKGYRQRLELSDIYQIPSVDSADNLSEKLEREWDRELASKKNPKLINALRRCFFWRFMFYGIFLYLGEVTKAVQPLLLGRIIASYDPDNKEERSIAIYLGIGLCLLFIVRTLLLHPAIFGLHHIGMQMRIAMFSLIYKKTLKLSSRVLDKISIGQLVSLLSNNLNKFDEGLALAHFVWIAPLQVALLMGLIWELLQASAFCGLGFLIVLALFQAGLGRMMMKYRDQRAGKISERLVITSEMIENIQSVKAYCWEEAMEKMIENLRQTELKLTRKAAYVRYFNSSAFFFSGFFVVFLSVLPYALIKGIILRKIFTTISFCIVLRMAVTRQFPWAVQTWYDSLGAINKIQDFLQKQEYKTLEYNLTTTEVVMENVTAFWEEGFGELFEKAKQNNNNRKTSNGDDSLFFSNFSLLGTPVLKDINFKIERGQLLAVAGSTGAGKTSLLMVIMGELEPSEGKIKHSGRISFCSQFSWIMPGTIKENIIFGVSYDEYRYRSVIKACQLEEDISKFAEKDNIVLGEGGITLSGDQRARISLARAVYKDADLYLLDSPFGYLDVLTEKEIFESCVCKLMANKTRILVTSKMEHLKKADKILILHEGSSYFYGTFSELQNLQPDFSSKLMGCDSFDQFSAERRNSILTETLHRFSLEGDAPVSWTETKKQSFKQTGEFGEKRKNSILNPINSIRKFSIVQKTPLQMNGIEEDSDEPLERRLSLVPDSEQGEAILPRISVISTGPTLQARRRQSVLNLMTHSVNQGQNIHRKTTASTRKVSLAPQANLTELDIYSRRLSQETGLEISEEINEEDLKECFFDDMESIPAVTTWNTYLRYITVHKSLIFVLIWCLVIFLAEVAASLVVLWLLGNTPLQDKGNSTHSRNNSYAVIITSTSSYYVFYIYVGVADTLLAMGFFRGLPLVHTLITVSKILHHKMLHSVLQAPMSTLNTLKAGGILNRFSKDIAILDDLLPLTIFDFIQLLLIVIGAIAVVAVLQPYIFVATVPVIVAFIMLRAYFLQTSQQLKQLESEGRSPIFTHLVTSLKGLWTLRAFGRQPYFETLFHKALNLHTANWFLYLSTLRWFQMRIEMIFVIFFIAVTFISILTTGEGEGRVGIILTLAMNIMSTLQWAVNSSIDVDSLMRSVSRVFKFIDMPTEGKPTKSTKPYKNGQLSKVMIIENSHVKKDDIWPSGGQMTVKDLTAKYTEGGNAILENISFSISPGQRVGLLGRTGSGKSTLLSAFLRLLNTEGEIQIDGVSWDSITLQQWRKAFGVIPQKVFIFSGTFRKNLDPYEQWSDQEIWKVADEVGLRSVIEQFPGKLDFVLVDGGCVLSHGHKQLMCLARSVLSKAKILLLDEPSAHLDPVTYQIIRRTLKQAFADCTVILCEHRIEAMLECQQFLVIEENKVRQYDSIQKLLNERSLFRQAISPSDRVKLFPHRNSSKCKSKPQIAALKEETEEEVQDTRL
Method: For CFTR studies using automated electrophysiology and single-channel recording, we used baby hamster kidney (BHK) cells (RRID:CVCL_1915) and human embryonic kidney (HEK) 293 cells (RRID:CVCL_0045) stably expressing wild-type human CFTR and the CFTR variants F508del- and […] et al., [2002]; Xu et al., [2014]). […] HEK cells expressing CFTR variants were generated using the Flp-InTM system as described above for F508del- and G551D-CFTR-expressing FRT cells. They were cultured in Dulbecco's modified Eagle's medium (glucose, 1.5 g·L^-1; sodium pyruvate, 110 mg·L^-1) supplemented with 10% FBS (PAA Laboratories), GlutaMAXTM and hygromycin-B (150 μg·ml^-1; InvitrogenTM, Thermo Fisher Scientific) at 37°C in a humidified atmosphere with 5% CO2. Prior to study, F508del-CFTR expressed in HEK cells was trafficked to the plasma membrane by low temperature incubation (27°C for 24-72 h). The single-channel behaviour of human CFTR in excised membrane patches from different mammalian cell lines heterologously expressing CFTR is equivalent (wild-type CFTR, Chen et al., [2009]; F508del-CFTR, Bose et al., [2019]; and G551D-CFTR, J Liu, Y Wang, Z Cai, and DN Sheppard, unpublished observations). […] The continuous lines are the fit of sigmoidal concentration-response functions to mean data. […] (Figure S2D: Normality Test (Shapiro-Wilk), P = 0.124 (passed); Equal Variance Test (Brown-Forsythe), P = 0.092 (passed)). Click here for additional data file.

## CC(C)(C)c1cc(C(C)(C)C)c(NC(=O)c2c[nH]c3ccccc3c2=O)cc1O [ivacaftor, reference compound]
[1]
  EC50: 0.005 µM
  Emax: 103%
G551D‐CFTR
  EC50: 0.82 µM
  Emax: 70%

## Cc1ncccc1CNC(=O)c1ccc2c(c1)CC[C@H]1C[C@](O)(CCC(F)(F)F)CC[C@]21Cc1ccccc1 (racemic) [CP‐628006, rac‐(4bR,7R,8aS)‐4b‐benzyl‐7‐hydroxy‐N‐((2‐methylpyridin‐3‐yl)methyl)‐7‐(3,3,3‐trifluoropropyl)‐4b,5,6,7,8,8a,9,10‐octahydrophenanthrene‐2‐carboxamide]
[1]
  EC50: 0.14 µM
  Emax: 18%
G551D‐CFTR
  EC50: 5.13 µM
  Emax: 72%
